Reference: article PMC12339982 (Nature Communications, 2025)
Where a chain is given by its changes, count along the chain named.

Assays:
[1] = target: T1, human wild type TauT (TauT^WT) (Homo sapiens, UniProt P31641); experiment: [3H]taurine uptake inhibition assay in HEK293T cells overexpressing TauT^WT; assay type: cell-based; conditions: result in words
T1 sequence (P31641 1-620): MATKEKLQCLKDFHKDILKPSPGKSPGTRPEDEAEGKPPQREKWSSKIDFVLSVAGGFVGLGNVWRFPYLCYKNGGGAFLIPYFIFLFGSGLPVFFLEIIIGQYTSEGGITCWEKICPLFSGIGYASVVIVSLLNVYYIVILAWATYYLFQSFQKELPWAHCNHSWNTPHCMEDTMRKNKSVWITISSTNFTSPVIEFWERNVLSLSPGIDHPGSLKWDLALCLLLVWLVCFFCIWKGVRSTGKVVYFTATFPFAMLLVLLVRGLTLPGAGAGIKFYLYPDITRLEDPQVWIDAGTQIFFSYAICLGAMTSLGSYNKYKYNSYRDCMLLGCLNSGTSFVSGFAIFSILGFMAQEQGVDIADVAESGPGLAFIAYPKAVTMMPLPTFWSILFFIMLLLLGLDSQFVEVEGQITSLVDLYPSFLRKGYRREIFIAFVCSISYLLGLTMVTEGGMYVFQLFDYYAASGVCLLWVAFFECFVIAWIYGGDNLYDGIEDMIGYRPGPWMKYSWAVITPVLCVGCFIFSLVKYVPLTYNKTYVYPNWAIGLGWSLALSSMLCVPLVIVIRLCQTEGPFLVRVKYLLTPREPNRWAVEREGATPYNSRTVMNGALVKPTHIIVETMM

[2] = target: T2, TauT^WT and variants (Homo sapiens, UniProt P31641, E406C); experiment: [3H]γ-aminobutyric acid uptake by TauT^WT and variants in HEK293T cells; assay type: cell-based; conditions: mutation Glu406Cys
T2 sequence (P31641 1-620 E406C): T1 sequence (P31641 1-620) with E406C

[3] = test system: TauT^WT and variants; experiment: as above; assay type: cell-based, human; conditions: amino acid substitutions in Gly57, Phe58, Leu306
[4] = target: T3, TauT S402A mutant (Homo sapiens, UniProt P31641, S402A); experiment: MST binding, TauT S402A; conditions: mean ± s.e.m., n=3
T3 sequence (P31641 1-620 S402A): T1 sequence (P31641 1-620) with S402A

[5] = target: T4, TauT^WT and variants (Homo sapiens, UniProt P31641, L134C); experiment: [3H]taurine uptake; assay type: cell-based; conditions: mutation Leu134Cys
T4 sequence (P31641 1-620 L134C): T1 sequence (P31641 1-620) with L134C

[6] = test system: TauT^WT and variants; experiment: [3H]taurine uptake; assay type: cell-based, human

inhibition of the uptake activity of TauT [1] | Kd (MST) [4] | transport activity of taurine [5] | SMILES | transport activity of GABA [2] | transport activity for GABA [3] | taurine transport activity ([6]; Asn63, Ser301, Asn333 substituted with alanine or aspartate (Na1 site)) | transport activity for taurine ([6]; amino acid substitutions in Gly57, Phe58, Leu306) | taurine transport activity ([6]; mutations in Asp401 and Ser402 (Na2 site))
potent inhibitory effects | – | – | [H]/N=C(/N)NCC(=O)O [GAA, guanidinoacetate] | – | – | – | – | –
potent inhibitory effects | – | – | NCCCC(=O)O [GABA, γ-aminobutyric acid] | significant increase in the transport activity | decrease in transport activity | – | – | –
– | undetectable binding | significantly lower transport activity | NCCS(=O)(=O)O [Taurine, taurine] | – | – | complete loss of function | decrease in transport activity | weaken the substrate transport function
